# Source: patent US11458138B2 (Novartis AG, priority 2017, dated 2022)
# How the values were obtained:
# [1] = tested on: Phospho-YAP (Ser127) in JHH-5 cells; test: pYAP HTRF Assay (JHH-5 cells); format: cell-based; conditions: 2 hours
# Summary of the method: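 Phospho-YAP read by HTRF (665 nm/620 nm ×10000) in lysates after overnight 18 h antibody incubation at room temperature. Compound treatment lasted 2 h at 37 °C, on JHH-5 cells plated 24 h earlier at 24000 per well in William's E medium with 10% FBS.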
# [2] = tested on: Phospho-YAP (SER127) in HaCaT cells; test: pYAP HTRF Assay (HaCaT Cells); format: cell-based, human; conditions: Homo sapiens, 2 hours
# Summary of the method: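 Phospho-YAP (Ser127) was measured by HTRF (665 nm/620 nm ratio) in HaCaT cells. Cells were grown 48 hours at 37° C at 5500 cells/well, exposed to compound for 2 hours, and incubated with detection reagents for 20 hrs at room temperature.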
# limbal stem cells (LSCs) = test: Differentiation of expanded LSCs into corneal epithelium cells (p63alpha / keratin 12); format: cell-based, human; conditions: transferred to conditions that enable differentiation
# Excerpt: Shown are views where the transition from the p63alpha-positive cell identity to the keratin-12 identity are occurring.
# These characteristics can be observed by immunohistochemistry or FACS.
# LATS1 = LATS1 (Homo sapiens (Human), UniProt O95835); test: LATS1 biochemical assay (Table 1A, Compound Examples 1-290; method in the earlier part)
# Chain of LATS1 (O95835 whole entry, looked up): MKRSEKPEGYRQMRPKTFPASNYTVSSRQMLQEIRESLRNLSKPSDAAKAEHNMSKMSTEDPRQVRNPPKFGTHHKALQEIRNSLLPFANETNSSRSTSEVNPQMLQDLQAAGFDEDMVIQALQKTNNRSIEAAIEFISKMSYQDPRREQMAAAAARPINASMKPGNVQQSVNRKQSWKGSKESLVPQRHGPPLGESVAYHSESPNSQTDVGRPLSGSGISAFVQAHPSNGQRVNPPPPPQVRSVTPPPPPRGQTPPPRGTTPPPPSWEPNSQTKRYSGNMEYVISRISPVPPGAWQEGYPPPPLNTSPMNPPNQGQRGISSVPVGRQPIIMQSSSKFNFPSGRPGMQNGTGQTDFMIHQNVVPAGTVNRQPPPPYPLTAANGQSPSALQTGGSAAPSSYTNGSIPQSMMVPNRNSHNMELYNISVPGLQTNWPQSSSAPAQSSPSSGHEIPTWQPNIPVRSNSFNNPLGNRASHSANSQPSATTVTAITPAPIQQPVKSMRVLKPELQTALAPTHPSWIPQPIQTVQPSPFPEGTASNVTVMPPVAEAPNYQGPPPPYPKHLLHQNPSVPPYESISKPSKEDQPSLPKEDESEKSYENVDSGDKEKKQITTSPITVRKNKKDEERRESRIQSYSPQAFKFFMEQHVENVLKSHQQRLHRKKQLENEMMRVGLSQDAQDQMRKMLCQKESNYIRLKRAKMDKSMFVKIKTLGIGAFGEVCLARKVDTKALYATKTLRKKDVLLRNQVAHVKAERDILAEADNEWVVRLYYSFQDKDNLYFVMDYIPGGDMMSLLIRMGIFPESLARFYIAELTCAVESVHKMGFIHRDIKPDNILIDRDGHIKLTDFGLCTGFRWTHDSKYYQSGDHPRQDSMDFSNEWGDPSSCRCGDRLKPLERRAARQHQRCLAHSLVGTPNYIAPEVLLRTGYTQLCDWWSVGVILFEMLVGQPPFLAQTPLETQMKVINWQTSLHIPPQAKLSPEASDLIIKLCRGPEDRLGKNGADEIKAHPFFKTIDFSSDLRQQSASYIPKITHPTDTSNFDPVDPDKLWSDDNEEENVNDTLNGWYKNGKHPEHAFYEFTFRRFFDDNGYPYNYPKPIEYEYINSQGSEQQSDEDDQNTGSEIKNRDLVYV
# Chain of LATS1 (Q7L9L4 whole entry partner, looked up): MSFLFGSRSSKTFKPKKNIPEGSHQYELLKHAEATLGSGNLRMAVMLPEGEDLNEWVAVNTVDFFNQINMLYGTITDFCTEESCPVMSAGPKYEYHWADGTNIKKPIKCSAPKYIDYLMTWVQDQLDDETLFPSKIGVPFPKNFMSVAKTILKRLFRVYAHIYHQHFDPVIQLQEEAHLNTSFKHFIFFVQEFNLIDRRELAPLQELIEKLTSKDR
# rabbit corneal surface = test: Rabbit model of limbal stem cell deficiency, transplantation of expanded LSCs; format: in vivo; conditions: LSCs expanded in medium comprising the compound, combined with GelMA, delivered via contact lens
# Excerpt: FIG. 7B: Arrow is pointing to absence of keratin 19 staining. […] FIG. 7C: Arrow is pointing to absence of keratin-12 staining. […] FIG. 7D: Arrow is pointing to areas of positive keratin-19 staining.
# [3] = tested on: YAP nuclear translocation in HaCaT cells; test: YAP Translocation Assay (HaCaT Cells); format: cell-based, human; conditions: Homo sapiens, 24 hours
# Summary of the method: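 HaCaT cells (20,000/well) in DMEM + 10% FBS were plated overnight at 37° C, then exposed to compound for 24 h at 37° C. Cells were fixed with PFA, permeabilized with 0.1% Triton/1.5% BSA and imaged by high-content imaging.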
# [4] = molecular target: Human LATS2 kinase domain protein (Homo sapiens (Human), UniProt Q9NRM7); test: LATS2 Biochemical Caliper Assay (Compound Examples 1-290); conditions: 400 micromolar ATP
# Chain of Human LATS2 kinase domain protein (Q9NRM7 553-1088): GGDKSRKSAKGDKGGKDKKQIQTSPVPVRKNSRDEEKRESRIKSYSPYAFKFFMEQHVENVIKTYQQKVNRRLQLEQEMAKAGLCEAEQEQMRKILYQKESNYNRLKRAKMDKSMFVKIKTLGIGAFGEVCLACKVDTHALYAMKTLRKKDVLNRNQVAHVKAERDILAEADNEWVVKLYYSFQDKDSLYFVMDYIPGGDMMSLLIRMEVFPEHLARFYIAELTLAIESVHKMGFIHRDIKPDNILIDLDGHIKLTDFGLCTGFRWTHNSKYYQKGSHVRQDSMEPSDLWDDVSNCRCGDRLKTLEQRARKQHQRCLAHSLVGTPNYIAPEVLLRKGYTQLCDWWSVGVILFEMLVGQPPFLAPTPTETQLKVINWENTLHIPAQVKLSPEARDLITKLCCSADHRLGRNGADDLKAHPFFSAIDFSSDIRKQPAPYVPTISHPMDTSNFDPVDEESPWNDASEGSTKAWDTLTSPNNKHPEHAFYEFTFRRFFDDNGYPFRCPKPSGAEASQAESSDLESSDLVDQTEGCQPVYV
# Chain of Human LATS2 kinase domain protein (Q7L9L4 whole entry partner, the tested form may be a part): as the sequence (Q7L9L4 whole entry partner, looked up) above
# Description: Human LATS2 kinase domain protein was purchased from Carnabio (catalogue number 01-124), which harbors the catalytic domain of amino acids 553-1088, and was co-purified with human His-tagged MOBKL1A (NP_775-739). 5 microlitre of enzyme buffer, 100 nL of compounds and 5 microlitre of localising aid buffer were added into 384-well plates. […] The plates were incubated at 25° C. for 3 hours. 40 microlitre of stop buffer with 25 mM EDTA (NanoSyn) was added to each well to terminate the reaction. Localising aids and products were separated electrophoretically using the microfluidic-based Caliper Labchip 3000 Drug Discovery System (Caliper Life Sciences). Plates were read using blue laser excitation and green fluorescence detection and quantified by fluorescence intensity.
# [5] = tested on: hepatic progenitor cells (HPC); test: Mouse Hepatic Progenitor Cell Proliferation Assay; format: cell-based; conditions: 96 h, mean number of nuclei per organoid, 4 days
# Description: The progenitor cells were isolated from C57Bl/6 wild type mice and expanded as described (Lu, W. Y. et al., Nat. Cell Biol. 17, 971-983 (2015)). Cells are stocked in liquid nitrogen, thawed on need and tested using the following protocol: HPC are harvested from their collagen I coated culture vessel (Corning; cat. Number 354487), counted and assessed for viability using a CEDEX cell counter (Roche). After centrifugation, 12 million cells are re-suspended in 2 ml of William's E Medium (Life Technologies; cat. Number 22551089) supplemented with 10% Fetal Bovine Serum (Amimed; cat. Number 2-01F10-I); 1% Penicillin/Streptomycin (Sigma; cat. Number 15140-122); 17.6 mM of NaHCO3 (Sigma; cat. Number S8761); 20 mM HEPES (Gibco; cat. Number H3375); 10 mM Nicotinamide (Sigma; cat. Number N0636-100); 14 mM glucose (Sigma; cat. Number G7021); 1 mM Sodium Pyruvate (Sigma; cat. Number TMS-005); Insulin Transferrin Selenium (ITS) diluted 100 times from stock solution (Sigma; cat. Number 13148); 100 nM Dexamethasone (Sigma; cat. Number D4902); 0.2 mM ascorbic acid (Sigma; cat. Number A7506-100G); 10 ng/ml recombinant human IL-6 (Preprotech; cat. Number 200-06); 10 ng/ml murine HGF (Preprotech; cat. Number 315-23; Lot. 0711S527); 10 ng/ml murine EGF (Preprotech; cat. Number 315-09; Lot. 0217179-1). Six milliliters of Matrigel (Corning; cat. Number 354277; Lot: 5187006) are added to the cell/media solution, thus the final cell concentration is 1.5 million HPC per milliliter, in 25% culture medium and 75% Matrigel. Five microliter (p1) of the cell/Matrigel suspension are transferred in each well of the clear bottom 96 well assay plate (Corning; cat. Number 356649) using the Star dispenser (Hamilton). […]
# Plates are imaged with the CV7000 imager (Yokogawa) at a 10 fold magnification using the bright field lamp (lamp power: 10%; exposure time: 20 ms) and the 405 nanometer laser (laser power: 100%; exposure time 200 ms). Four different images per well were acquired and analyzed with the Yokogawa image analysis software (YAS). […]
# [6] = tested on: human limbal stem cells (LSCs); test: Human limbal stem cell population expansion: expansion factor; format: cell-based; conditions: 10 micromolar, XVIVO15 medium, two passages, ratio of expanded to seeded cells
# Description: (§1) Cells were cultured at 37° C. in 5% CO2.
# (§2) For each compound, two sets of cultures were generated. A first set of cultures was fixed in 4% PFA for 20 minutes at room temperature after cells isolated from the cornea had attached to the cell culture dish (typically 24 h after cell plating). A second set of cultures was fixed in 4% PFA for 20 minutes at room temperature after being cultured for two passages. Cells were passaged when they reached 90-100% confluence.
# To evaluate cell expansion ratios, nuclei were counted using a Zeiss LSM 880 confocal microscope. The expansion factor was then determined by calculating the ratio of the expanded population of cells to population of seeded cells.
# [7] = tested on: human corneal endothelial cells (CECs); test: Human corneal endothelial cell population expansion: endothelial cell density in vitro; format: cell-based; conditions: 10 micromolar compound, X-VIVO15 medium, 10 days
# Description: as §1
# (§3) For each compound, two sets of cultures were generated. A first set of cultures was fixed in 4% PFA for 20 minutes at room temperature after cells isolated from the cornea had attached to the cell culture dish (typically 24 h after cell plating). A second set of cultures was fixed in 4% PFA for 20 minutes at room temperature 10 days after the first one.
# (§4) To measure cell density in all fixed cultures, the number of nuclei stained with Sytox Orange (ThermoFisher) were counted per surface area as follows: fixed cell cultures fixed were permeabilized in a solution of 0.3% Triton X-100 (Sigma-Aldrich). Cells were then labeled in a solution of 0.5 micromolar of Sytox Orange in PBS for 5 minutes at room temperature. Nuclei were counted under a Zeiss epifluorescence microscope. The expansion factor was then determined by calculating the ratio of the expanded population of cells to population of seeded cells.
# [8] = tested on: human corneal endothelial cells (CECs); test: Human corneal endothelial cell population expansion: fold cell expansion; format: cell-based; conditions: 10 micromolar compound, X-VIVO15 medium, 10 days, ratio of expanded to seeded cells
# Description: as §1, §3, §4
# [9] = tested on: human limbal stem cells (LSCs); test: Human limbal stem cell population expansion: percentage of p63alpha-positive cells; format: cell-based; conditions: 10 micromolar, XVIVO15 medium
# Description: as §1, §2
# In order to observe that the expanded cell population expressed p63alpha, this was measured by immunohistochemistry as follows. The fixed cell cultures were permeabilized and blocked in a blocking solution of 0.3% Triton X-100 (Sigma-Aldrich) and 3% donkey serum in PBS for 30 minutes. Cells were then labeled with primary antibody in the blocking solution for 12 hours at 4° C. Primary antibody used was p63alpha from Cell Signalling. Samples were washed in PBS three times and donkey-raised secondary antibody Alexa Fluor 488 (Molecular Probes) at 1:500 dilution were applied for 30 minutes at room temperature. Cell nuclei were then labeled in a solution of 0.5 micromolar of Sytox Orange (ThermoFisher) in PBS for 5 minutes at room temperature.
# To evaluate the percentage of p63alpha-positive cells, the number of cells labeled by the anti-p63alpha antibody was counted and the total number of cells was determined by counting the number of nuclei stained by Sytox Orange. The proportion of p63alpha-positive cells was then determined by calculating the percentage of Sytox-orange-positive nuclei that also expressed p63alpha.
# [10] = molecular target: Human LATS1 kinase domain protein (Homo sapiens (Human), UniProt O95835); test: LATS1 Biochemical Caliper Assay (Compound Examples 291-335); conditions: Caliper EZ Reader
# Chain of Human LATS1 kinase domain protein (O95835 whole entry, looked up, the tested form may be a part): as the sequence (O95835 whole entry, looked up) above
# Chain of Human LATS1 kinase domain protein (Q7L9L4 whole entry partner, looked up, the tested form may be a part): as the sequence (Q7L9L4 whole entry partner, looked up) above
IC50 [1] [nM],IC50 (LATS1) [nM],IC50 [4] [nM],IC50 [10] [nM],Structure (SMILES),IC50 [2] [nM],differentiation of expanded LSCs into corneal epithelium cells (keratin 12) (limbal stem cells (LSCs)),conjunctivalization (keratin-19) in transplanted eye (rabbit corneal surface),corneal epithelium regeneration (keratin-12) in transplanted eye (rabbit corneal surface),EC50 [3] [nM],EC50 [5] [nM],Expansion factor [6],Endothelial Cell density in vitro [7] [cells/mm^2],Expansion factor (Fold Cell expansion) [8],Percentage of p63a-positive cells [9] [%]
–,–,–,–,"C[C@H](N(C)c1nc(-c2ccncc2)nc2cnccc12)C(F)(F)F [Example 48a, N-methyl-2-(pyridin-4-yl)-N-[(2S)-1,1,1-trifluoropropan-2-yl]pyrido[3,4-d]pyrimidin-4-amine]",–,–,–,–,–,260,–,–,–,–
600,1,170,–,"CC(C)(Nc1nc(-c2ccncc2)nc2cnccc12)C(F)(F)F [Example 58, 2-(pyridin-4-yl)-N-(1,1,1-trifluoro-2-methylpropan-2-yl)pyrido[3,4-d]pyrimidin-4-amine]",185,–,–,–,302,840,–,–,–,–
6200,2,11,–,"CC(C)(CO)Nc1nc(-c2ccncc2)nc2cnccc12 [Example 66, 2-methyl-2-{[2-(pyridin-4-yl)pyrido[3,4-d]pyrimidin-4-yl]amino}propan-1-ol]",534,–,–,–,1010,–,1160,2503,280,89
1700,3,20,–,"CC(C)(Nc1nc(-c2ccncc2Cl)nc2cnccc12)C(F)(F)F [Example 139, 2-(3-chloropyridin-4-yl)-N-(1,1,1-trifluoro-2-methylpropan-2-yl)pyrido[3,4-d]pyrimidin-4-amine]",380,–,–,–,2660,–,961,1179,107,87
9000,2,15,–,"CCCNc1nc(-c2c[nH]nc2C(F)(F)F)nc2cnccc12 [Example 287, N-propyl-2-(3-(trifluoromethyl)-1H-pyrazol-4-yl)pyrido[3,4-d]pyrimidin-4-amine]",2990,–,–,–,3880,–,991,1893,237,86
> 10000,–,–,10.2,"CC1CNCCN1c1cc(-c2ccncc2)nc2cnccc12 (stereo not drawn) [Example 303, 4-(2-methylpiperazin-1-yl)-2-(pyridin-4-yl)-1,7-naphthyridine]",–,–,–,–,–,> 20000,–,–,–,–

Structure (SMILES),IC50 [1] [nM],IC50 (LATS1) [nM],IC50 [4] [nM],IC50 [10] [nM],IC50 [2] [nM],differentiation of expanded LSCs into corneal epithelium cells (keratin 12) (limbal stem cells (LSCs)),conjunctivalization (keratin-19) in transplanted eye (rabbit corneal surface),corneal epithelium regeneration (keratin-12) in transplanted eye (rabbit corneal surface),EC50 [3] [nM],EC50 [5] [nM],Expansion factor [6],Endothelial Cell density in vitro [7] [cells/mm^2],Expansion factor (Fold Cell expansion) [8],Percentage of p63a-positive cells [9] [%]
"CC(C)(O)COCC(C)(C)Nc1nc(-c2ccncc2)nc2cnccc12 [Example 12, 2-methyl-1-(2-methyl-2-{[2-(pyridin-4-yl)pyrido[3,4-d]pyrimidin-4-yl]amino}propoxy)propan-2-ol]",2900,4,15,–,1150,can differentiate into corneal epithelium cells,prevented conjunctivalization by keratin-19-positive conjunctival cells,lead to regeneration of a keratin-12-positive corneal epithelium,1750,–,–,–,–,–
